Experimental data from US6020340A, “Imidazopyridines” (Byk Gulden Lomberg Chemische Fabrik GmbH, priority 1996, dated 2000).

Test system: PDE IV
Assay: Inhibition of PDE IV activity (method of Bauer and Schwabe, adapted to microtiter plates)
Type: biochemical

Compound | Inhibition of PDE IV activity, -log IC50
COc1ccc(-c2nc3ncccc3[nH]2)c2cc(C(C)C)oc12 [Compound 1, 2-[7-Methoxy-2-(1-methylethyl)benzofuran-4-yl]imidazo[4,5-b]pyridine] | 7.41
CC(C)c1cc2c(-c3nc4ncccc4[nH]3)ccc(OC(F)F)c2o1 [Compound 2, 2-[7-Difluoromethoxy-2(1-methylethyl)benzofuran-4yl]imidazo[4,5-b]pyridine] | 8.14
COc1ccc(-c2nc3ncccc3[nH]2)c2c1OC1(C=C2)CCCC1 [Compound 3, 2-[8-Methoxy-2,2-tetramethylene-1[2H]chromen-5-yl]imidazo[4,5-b]pyridine] | 5.83
COc1ccc(-c2nc3cnccc3[nH]2)c2cc(C3CCCC3)oc12 [Compound 4, 2-(2Cyclopentyl-7-methoxy-benzofuran-4-yl)imidazo[4,5-c]pyridine] | 7.74
COc1ccc(-c2nc3cnccc3[nH]2)c2c1OC1(C=C2)CCCC1 [Compound 5, 2-[8-Methoxy-2,2-tetramethylene-1[2H]chromen-5-yl]imidazo[4,5-c]pyridine] | 6.76
CC(C)c1cc2c(-c3nc4cnccc4[nH]3)ccc(OC(F)F)c2o1 [Compound 6, 2-[7-Difluoromethoxy-2-(1-methylethyl)benzofuran-4-yl]imidazo[4,5-c]pyridine] | 8.38
COc1ccc(-c2nc3cnccc3[nH]2)c2cc(C(C)C)oc12 [Compound 7] | 8.09
